This is an account of results in article PMC8272148, “Antioxidant Serine-(NSAID) Hybrids with Anti-Inflammatory and Hypolipidemic Potency” (Molecules, 2021).

Marks after values point to notes of the source that are not given here.

Assay [1] relates to carrageenan-induced rat paw edema. The experiment in a line: Carrageenan-induced rat paw edema. The following applies: ip, 0.15 mmol/kg i.p., 3.5 h after carrageenan, vs controls, read-out: % Edema Reduction. In kind it is in vivo, Wistar rats. On the procedure: An amount of 0.1 mL of an aqueous carrageenan solution (1% w/v) was injected into the hind paw of adult Wistar rats (6 rats were used for each compound). The tested compounds (in water with a few drops of Tween 80) were administered i.p. (0.15 mmol/kg) 5 min before the carrageenan administration. The produced edema, after 3.5 h, was estimated as paw weight increase.

The subject of assay [2] is rat hepatic microsomal membrane lipid peroxidation. The assay is described as follows: Inhibition of rat hepatic microsomal membrane lipid peroxidation (ferrous ascorbate induced, TBA reactive material). The following applies: after 45 min of incubation; for IC50: rat hepatic microsomal membrane. The class given is biochemical. On the procedure: The peroxidation of the heat-inactivated rat hepatic microsomal fraction was induced by ferrous ascorbate. The studied compounds, in dimethylsulfoxide, were added at concentrations of 1 μM–1 mM. Aliquots were taken from the incubation mixture (37 °C) for 45 min. Lipid peroxidation was assessed spectrophotometrically (535/600 nm) as a 2-thiobarbituric acid reactive material. The incubation mixture and solvents were found not to interfere with the assay.

For the next assay, the target named is T1, soybean lipoxygenase 1-B (Glycine max, UniProt P08170).
T1 sequence (P08170 1-839): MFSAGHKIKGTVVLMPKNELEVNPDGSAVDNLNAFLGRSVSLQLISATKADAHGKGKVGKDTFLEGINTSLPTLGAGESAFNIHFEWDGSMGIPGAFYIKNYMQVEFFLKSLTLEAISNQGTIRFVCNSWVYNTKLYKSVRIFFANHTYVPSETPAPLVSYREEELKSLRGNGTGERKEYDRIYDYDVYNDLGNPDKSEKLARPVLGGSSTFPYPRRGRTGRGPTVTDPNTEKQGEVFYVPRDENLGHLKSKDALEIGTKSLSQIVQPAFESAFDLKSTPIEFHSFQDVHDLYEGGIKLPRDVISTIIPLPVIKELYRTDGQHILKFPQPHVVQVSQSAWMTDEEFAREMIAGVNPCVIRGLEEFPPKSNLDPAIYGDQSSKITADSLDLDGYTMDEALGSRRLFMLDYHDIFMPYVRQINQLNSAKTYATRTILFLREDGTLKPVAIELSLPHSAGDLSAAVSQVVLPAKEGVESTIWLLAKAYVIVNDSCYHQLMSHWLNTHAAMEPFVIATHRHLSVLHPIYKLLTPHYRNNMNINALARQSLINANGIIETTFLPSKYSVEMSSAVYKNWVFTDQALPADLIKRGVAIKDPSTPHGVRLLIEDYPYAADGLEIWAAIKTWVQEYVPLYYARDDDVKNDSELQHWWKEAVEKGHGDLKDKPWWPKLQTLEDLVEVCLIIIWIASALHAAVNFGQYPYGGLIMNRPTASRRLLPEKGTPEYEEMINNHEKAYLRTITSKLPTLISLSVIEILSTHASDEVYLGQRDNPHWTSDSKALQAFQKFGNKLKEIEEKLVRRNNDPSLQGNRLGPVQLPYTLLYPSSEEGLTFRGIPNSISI
The assay is described as follows: In vitro inhibition of soybean lipoxygenase. In kind it is biochemical. The following applies: linoleic acid (100 μM) as substrate, after 7 min of incubation; for inhibition at 100 µM: 100 μM compound, read-out: Lipoxygenase percent inhibition at 100 μM. On the procedure: The reaction mixture contained the test compounds, dissolved in absolute ethanol (0.1 mL) at various concentrations, or the solvent (control, 0.1 mL), soybean lipoxygenase dissolved in 0.9% NaCl solution (250 u/mL, 0.2 mL) and sodium linoleate (100 μM) in Tris–HCl buffer, pH 9.0 (2.7 mL). The reaction was followed for 7 min at 28 °C, recording the absorbance of a conjugated diene structure at 234 nm, due to the formation of 13-hydroperoxy-linoleic acid. […] For the estimation of the type of inhibition, the above experiments were repeated, using sodium linoleate at 1 mM, which is higher than the saturating substrate concentration.

The nature of assay [3]: Interaction with the stable radical DPPH. The settings on record: DPPH 200 μM, after 30 min. As for the experimental part:
Compounds, dissolved in absolute ethanol, at concentrations of 25–200 μM, were added to an equal volume of an ethanolic solution of DPPH (final concentration 200 μM) at room temperature (22 ± 2 °C). Absorbance (517 nm) was recorded after 30 min [26]. For the calculation of percent interaction, the residual absorbance of DPPH Ai (at a fixed concentration) after its interaction with the examined compounds (at various concentrations) was compared with the control absorbance Ao, without the addition of compounds, following the equation: (1) Percent interaction=100−(Ai/Ao×100)

In assay [4] the test system is Triton WR1339 (tyloxapol)-induced hyperlipidemia. The assay is described as follows: Triton WR1339 (tyloxapol)-induced hyperlipidemia in rats. The class given is in vivo, Wistar rats. The following applies: 150 μmol/kg i.p., rat plasma, 24 h, tyloxapol 200 mg/kg i.p. On the procedure:
The examined compounds (0.15 mmol/kg) were administered i.p. one hour later. Blood was taken from the aorta after 24 h, for the determination of plasma total cholesterol, LDL cholesterol and triglyceride concentration, using commercial kits.

By IC50 is commonly meant the midpoint of a concentration-inhibition curve. In general, inhibition refers to the drop in the measured response relative to a control, in per cent. Consider `Cc1c(C)c2c(c(C)c1O)CCC(C)(C(=O)NC(CO)C(=O)O)O2` (stereo not drawn) [Compound 1, 3-Hydroxy-2-(6-hydroxy-2,5,7,8-tetramethylchroman-2-carboxamido)propanoic acid], for which the inhibition in vivo at 150 µmol/kg in assay [1] was found to be 43%. The same molecule registered an IC50 in assay [2] of 150 µM. The inhibition at 100 µM at soybean lipoxygenase 1-B was found to be 30%. Moreover, the “Percent Interaction with DPPH” value in assay [3] (compound 25 μM) came to 19.6%; in assay [3] (compound 50 μM), 48.0%; in assay [3] (compound 100 μM), 87.0%; in assay [3] (compound 200 μM), 90.4%.

For the molecule `CC(C)(C)c1cc(C(=O)NC(CO)C(=O)O)cc(C(C)(C)C)c1O` (stereo not drawn) [Compound 2, 2-(3,5-Di-tert-butyl-4-hydroxybenzamido)-3-hydroxypropanoic acid], in assay [1], the inhibition in vivo at 150 µmol/kg stood at 44%. Further, the “Inhibition of Lipid Peroxidation, percent at 1 mM” value in assay [2] (1 mM compound) was 40%/1 mM. For the same molecule, the inhibition at 100 µM at soybean lipoxygenase 1-B was found to be 15%. In assay [3] (compound 200 μM), the “Percent Interaction with DPPH” value is “lower than 10%”.

For `CC(C)(C)c1cc(/C=C/C(=O)NC(CO)C(=O)O)cc(C(C)(C)C)c1O` (stereo not drawn) [Compound 3, (E)-2-(3-(3,5-di-tert-butyl-4-hydroxyphenyl)acrylamido)-3-hydroxypropanoic acid], the inhibition in vivo at 150 µmol/kg in assay [1] stood at 27%. In assay [2], the half-inhibitory concentration (IC50) was determined as 80 µM. Moreover, the inhibition at 100 µM on soybean lipoxygenase 1-B worked out at 20%. The “Percent Interaction with DPPH” value in assay [3] (compound 25 μM) came out at 12.9%; in assay [3] (compound 50 μM), 17.4%; in assay [3] (compound 100 μM) it was 35.9%; in assay [3] (compound 200 μM), 82.3%.

`CCOC(=O)C(CO)NC(=O)C1(C)CCc2c(C)c(O)c(C)c(C)c2O1` (stereo not drawn) [Compound 4, Ethyl 3-hydroxy-2-(6-hydroxy-2,5,7,8-tetramethylchroman-2-carboxamido)propanoate]: the “% Reduction LDL-C (LDL cholesterol)” value in assay [4] was 60.2 * %. Besides, the “% Reduction TC (total cholesterol)” value in assay [4] is listed as 46.2 ** %. For the same molecule, in assay [4], the “% Reduction TG (triglycerides)” value is recorded as 53.4 ** %. In assay [1], the inhibition in vivo at 150 µmol/kg stood at 37%. Also, the concentration for half-maximal inhibition (IC50) in assay [2] is 7.3 µM. For the same molecule, the inhibition at 100 µM at soybean lipoxygenase 1-B came out at 15%. Besides, the “Percent Interaction with DPPH” value in assay [3] (compound 25 μM) is reported as 24.5%; in assay [3] (compound 50 μM), 53.3%; in assay [3] (compound 100 μM), 88.2%; in assay [3] (compound 200 μM), 92.4%.

`CCOC(=O)C(CO)NC(=O)c1cc(C(C)(C)C)c(O)c(C(C)(C)C)c1` (stereo not drawn) [Compound 5, Ethyl 2-(3,5-di-tert-butyl-4-hydroxybenzamido)-3-hydroxypropanoate]: in assay [4], the “% Reduction LDL-C (LDL cholesterol)” value is 66.0 ** %, the “% Reduction TC (total cholesterol)” value is 52.3 ** % and the “% Reduction TG (triglycerides)” value was 62.0 ** %. The inhibition in vivo at 150 µmol/kg in assay [1] was determined as 47%. The same molecule showed an IC50 in assay [2] of 163 µM. On soybean lipoxygenase 1-B, this molecule registered a half-inhibitory concentration (IC50) of 200 µM. For the same molecule, the “Percent Interaction with DPPH” value in assay [3] (compound 200 μM) is “lower than 10%”.

For the molecule `CCOC(=O)C(CO)NC(=O)/C=C/c1cc(C(C)(C)C)c(O)c(C(C)(C)C)c1` (stereo not drawn) [Compound 6, (E)-ethyl 2-(3-(3,5-di-tert-butyl-4-hydroxyphenyl)acrylamido)-3-hydroxypropanoate], the inhibition in vivo at 150 µmol/kg in assay [1] amounted to 44%. Also, the values for the half-maximal inhibitory concentration (IC50) (in assay [2]; on soybean lipoxygenase 1-B) were 22 µM and 156 µM, respectively. Moreover, the “Percent Interaction with DPPH” value in assay [3] (compound 25 μM) is reported as 17.9%; in assay [3] (compound 50 μM), 21.2%; in assay [3] (compound 100 μM) it was 48.6%; in assay [3] (compound 200 μM), 88.7%.

For the molecule `CCOC(=O)C(COC(=O)C(C)c1ccc(CC(C)C)cc1)NC(=O)C1(C)CCc2c(C)c(O)c(C)c(C)c2O1` (stereo not drawn) [Compound 7, Ethyl 2-(6-hydroxy-2,5,7,8-tetramethylchroman-2-carboxamido)-3-((2-(4-isobutylphenyl)propanoyl)oxy)propanoate], in assay [1], the inhibition in vivo at 150 µmol/kg is 45%. Besides, the IC50 in assay [2] was determined as 3.4 µM. The inhibition at 100 µM at soybean lipoxygenase 1-B is under 15%. Also, the “Percent Interaction with DPPH” value in assay [3] (compound 25 μM) is listed as 22.6%; in assay [3] (compound 50 μM) it was 54.2%; in assay [3] (compound 100 μM), 89.0%; in assay [3] (compound 200 μM), 91.6%.

Consider `CCOC(=O)C(COC(=O)C(C)c1ccc(CC(C)C)cc1)NC(=O)c1cc(C(C)(C)C)c(O)c(C(C)(C)C)c1` (stereo not drawn) [Compound 8, Ehyl 2-(3,5-di-tert-butyl-4-hydroxybenzamido)-3-((2-(4-isobutylphenyl)propanoyl)oxy)propanoate], for which, in assay [1], the inhibition in vivo at 150 µmol/kg amounted to 48%. Moreover, in assay [2] (500 μM compound), the “Inhibition of Lipid Peroxidation, percent at 500 μM” value came to 30%/500 μM. The molecule also registered an IC50 against soybean lipoxygenase 1-B of 13 µM. In addition, the “Percent Interaction with DPPH” value in assay [3] (compound 100 μM) was 4.0%; in assay [3] (compound 200 μM) it was 18.7%.

Regarding `CCOC(=O)C(COC(=O)C(C)c1cccc(C(=O)c2ccccc2)c1)NC(=O)C1(C)CCc2c(C)c(O)c(C)c(C)c2O1` (stereo not drawn) [Compound 10, Ethyl 3-((2-(3-benzoylphenyl)propanoyl)oxy)-2-(6-hydroxy-2,5,7,8-tetramethylchroman-2-carboxamido)propanoate], in assay [1], the inhibition in vivo at 150 µmol/kg came out at 42%. This molecule registered an IC50 in assay [2] of 2.8 µM. For the same molecule, the inhibition at 100 µM on soybean lipoxygenase 1-B was determined as 23%. For the same molecule, the “Percent Interaction with DPPH” value is reported as 12.4% in assay [3] (compound 25 μM), 30.1% in assay [3] (compound 50 μM), 64.6% in assay [3] (compound 100 μM) and 87.0% in assay [3] (compound 200 μM).

In the case of `CC(C)Cc1ccc(C(C)C(=O)O)cc1` (stereo not drawn) [Ibuprofen, ibuprofen, reference compound], the inhibition in vivo at 150 µmol/kg in assay [1] is 36%.

Molecule `CC(C(=O)O)c1cccc(C(=O)c2ccccc2)c1` (stereo not drawn) [Ketoprofen, ketoprofen, reference compound] showed an IC50 against soybean lipoxygenase 1-B of 220 µM.

Turning to `Cc1c(C)c2c(c(C)c1O)CCC(C)(C(=O)O)O2` (stereo not drawn) [Trolox, 6-hydroxy-2,5,7,8-tetramethylchroman-2-carboxylic acid, reference compound], the concentration for half-maximal inhibition (IC50) in assay [2] is 25 µM; against soybean lipoxygenase 1-B, over 300 µM. The “Percent Interaction with DPPH” value came out at 22.0% in assay [3] (compound 25 μM), 38.0% in assay [3] (compound 50 μM), 90.0% in assay [3] (compound 100 μM) and 92.0% in assay [3] (compound 200 μM).
